Results on 22 compounds are retold here after patent US20260200942A1, “PARP7 INHIBITORS AND THEIR APPLICATIONS” (CHONGQING PHARSCIN INNOBIO CO., LTD., priority 2023, published 2026).

The target in one assay is T1, PARP7 (Homo sapiens, UniProt Q7Z3E1).
T1 construct: purchased BPS 80527
T1 sequence (Q7Z3E1 1-657): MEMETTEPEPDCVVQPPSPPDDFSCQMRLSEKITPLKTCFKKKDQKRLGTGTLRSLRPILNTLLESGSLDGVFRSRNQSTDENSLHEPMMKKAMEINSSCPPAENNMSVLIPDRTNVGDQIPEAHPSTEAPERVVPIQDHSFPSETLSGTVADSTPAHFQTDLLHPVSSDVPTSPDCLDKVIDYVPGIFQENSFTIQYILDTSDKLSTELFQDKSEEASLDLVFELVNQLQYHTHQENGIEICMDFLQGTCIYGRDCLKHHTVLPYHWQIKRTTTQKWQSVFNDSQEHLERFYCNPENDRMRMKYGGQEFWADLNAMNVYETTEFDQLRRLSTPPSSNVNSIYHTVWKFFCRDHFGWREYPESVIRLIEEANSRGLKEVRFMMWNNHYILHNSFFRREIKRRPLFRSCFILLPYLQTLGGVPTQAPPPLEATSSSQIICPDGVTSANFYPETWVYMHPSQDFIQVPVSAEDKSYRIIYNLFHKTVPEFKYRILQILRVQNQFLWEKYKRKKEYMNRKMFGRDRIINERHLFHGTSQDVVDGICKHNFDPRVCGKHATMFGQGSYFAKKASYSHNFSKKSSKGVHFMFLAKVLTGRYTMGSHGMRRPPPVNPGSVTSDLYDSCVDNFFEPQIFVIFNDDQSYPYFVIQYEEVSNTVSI
The assay is described as follows: PARP7 inhibitory activity assay (histone-coated 384-well plate, chemiluminescence). The assay is classed as biochemical. The text has this: Inhibition rate (%) calculation formula: […]

Another assay concerns the target T2, PARP2 (Homo sapiens, UniProt Q9UGN5).
T2 construct: purchased BPS Bioscience
The assay is described as follows: PARP2 inhibitory activity assay (BPS PARP2 Chemiluminescent Activity Assay Kit). The assay is classed as biochemical. The text has this: The PARP2 enzyme activity assay method used in the present disclosure employs reagents from the PARP2 Chemiluminescent Activity Assay Kit from BPS Bioscience, USA. […] The test results are shown in Table 1. /” indicates not tested.

For orientation: IC50 means the midpoint of a concentration-inhibition curve. High values mean a need for much substance, low ones inhibition by little substance.

Structures are written as SMILES.

T2 sequence (Q9UGN5 whole entry): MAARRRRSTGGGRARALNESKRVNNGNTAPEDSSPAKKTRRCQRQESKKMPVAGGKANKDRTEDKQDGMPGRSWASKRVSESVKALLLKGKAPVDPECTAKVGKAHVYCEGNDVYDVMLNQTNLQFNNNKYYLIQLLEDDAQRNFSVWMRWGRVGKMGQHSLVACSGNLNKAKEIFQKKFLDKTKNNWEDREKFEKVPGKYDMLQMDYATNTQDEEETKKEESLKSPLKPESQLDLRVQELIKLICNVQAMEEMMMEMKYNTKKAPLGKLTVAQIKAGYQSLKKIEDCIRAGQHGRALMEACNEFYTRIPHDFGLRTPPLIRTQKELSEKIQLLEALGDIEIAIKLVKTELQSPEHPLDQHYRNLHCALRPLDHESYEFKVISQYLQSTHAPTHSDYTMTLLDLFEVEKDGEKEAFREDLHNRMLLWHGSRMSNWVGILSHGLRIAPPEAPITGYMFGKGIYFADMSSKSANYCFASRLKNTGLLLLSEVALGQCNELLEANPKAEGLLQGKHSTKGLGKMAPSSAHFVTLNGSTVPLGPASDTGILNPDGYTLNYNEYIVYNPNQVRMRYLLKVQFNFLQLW

On PARP7, `O=C(C1CN(Cc2cc(C(F)(F)F)c(=O)[nH]n2)C1)N1CCN2c3ncc(C(F)(F)F)cc3COC[C@@H]2C1` [Embodiment 44, (S)-4-(trifluoromethyl)-6-((3-(3-(trifluoromethyl)-7,7a,8,9,10,11-hexahydro-5H-pyrazino[2,1-c]pyrido[2,3-e][1,4]oxazepine-9-carbonyl)azetidin-1-yl)methyl)pyridazin-3(2H)-one] returned an IC50 of 10 to 100 nM.
Consider `COc1cc(C(F)(F)F)cnc1N1CCN(C(=O)[C@H]2C[C@H](NCc3cc(C(F)(F)F)c(=O)[nH]n3)C2)CC1` [Embodiment 45], for which the IC50 against PARP7 fell in the range of 10 to 100 nM.
For the compound `COc1cc(C(F)(F)F)cnc1N1CCN(C(=O)C2CN(Cc3cc(C(F)(F)F)c(=O)[nH]n3)C2)CC1` [Embodiment 46, 6-((3-(4-(3-methoxy-5-(trifluoromethyl)pyridin-2-yl)piperazine-1-carbonyl)azetidin-1-yl)methyl)-4-(trifluoromethyl)pyridazin-3(2H)-one], the values for the IC50 against PARP7 and on PARP2 were less than 10 nM and 10 to 100 nM, respectively.
In turn, `N#Cc1cc(C(F)(F)F)cnc1N1CCN(C(=O)[C@H]2C[C@H](NCc3cc(C(F)(F)F)c(=O)[nH]n3)C2)CC1` [Embodiment 47, 2-(4-((1R,3R)-3-(((6-oxo-5-(trifluoromethyl)-1,6-dihydropyridazin-3-yl)methyl)amino)cyclobutane-1-carbonyl)piperazin-1-yl)-5-(trifluoromethyl)nicotinonitrile] came in with an IC50 against PARP7 of 10 to 100 nM.
With `CC(C)(N[C@H]1C[C@H](C(=O)N2CCN(c3ncc(C(F)(F)F)cn3)CC2)C1)c1cc(C(F)(F)F)c(=O)[nH]n1` [Embodiment 48], the IC50 on PARP7 was less than 10 nM; at PARP2, 10 to 100 nM.
The compound `CC(C)(c1cc(C(F)(F)F)c(=O)[nH]n1)N1CC(C(=O)N2CCN(c3ncc(C(F)(F)F)cn3)CC2)C1` [Embodiment 49, 4-(trifluoromethyl)-6-(2-(3-(4-(5-(trifluoromethyl)pyrimidin-2-yl)piperazine-1-carbonyl)azetidin-1-yl)propan-2-yl)pyridazin-3(2H)-one] displayed an IC50 at PARP7 of 10 to 100 nM.
Take `N#Cc1cc(C(F)(F)F)cnc1N1CCN(C(=O)C2CC(NCc3cc(C(F)(F)F)c(=O)[nH]n3)C2)CC1` [Embodiment 50, 2-(4-((1R,3R)-3-(((6-oxo-5-(trifluoromethyl)-1,6-dihydropyridazin-3-yl)methyl)amino)cyclobutane-1-carbonyl)piperazin-1-yl)-5-(trifluoromethyl)nicotinonitrile]: at PARP7, the IC50 was in the range of 10 to 100 nM.
Turning to `O=C(C1CN(Cc2n[nH]c(=O)cc2OC2CCC2)C1)N1CCN(c2ncc(C(F)(F)F)cn2)CC1` [Embodiment 51, 5-cyclobutoxy-6-((3-(4-(5-(trifluoromethyl)pyrimidin-2-yl)piperazine-1-carbonyl)azetidin-1-yl)methyl)pyridazin-3(2H)-one], the IC50 at PARP7 fell in the range of 100 to 1000 nM.
The compound `O=c1cc(OC2CCC2)c(CN[C@H]2C[C@H](C(=O)N3CCN(c4ncc(C(F)(F)F)cn4)CC3)C2)n[nH]1` [Embodiment 52] gave an IC50 against PARP7 of 10 to 100 nM.
`Cc1cc(C(F)(F)F)cnc1N1CCN(C(=O)[C@H]2C[C@H](NCc3cc(C(F)(F)F)c(=O)[nH]n3)C2)CC1` [Embodiment 53] had an IC50 against PARP7 of 10 to 100 nM.
At PARP7, `O=C(C1CN(Cc2n[nH]c(=O)cc2C(F)(F)F)C1)N1CCN(c2ncc(C(F)(F)F)cn2)CC1` [Embodiment 54, 5-(trifluoromethyl)-6-((3-(4-(5-(trifluoromethyl)pyrimidin-2-yl)piperazine-1-carbonyl)azetidin-1-yl)methyl)pyridazin-3(2H)-one] had a 50% inhibitory concentration (IC50) of 100 to 1000 nM.
Turning to `O=c1cc(C(F)(F)F)c(CN[C@H]2C[C@H](C(=O)N3CCN(c4ncc(C(F)(F)F)cn4)CC3)C2)n[nH]1` [Embodiment 55], the half-inhibitory concentration (IC50) at PARP7 fell in the range of 1000 to 10000 nM.
On to `O=c1[nH]nc(CN[C@H]2C[C@H](C(=O)N3CCN(c4ncc(C(F)(F)F)cc4C4CC4)CC3)C2)cc1C(F)(F)F` [Embodiment 56], for which the IC50 against PARP7 fell in the range of 10 to 100 nM.
As for `COc1cc(N2CCN(C(=O)C3CN(Cc4cc(C(F)(F)F)c(=O)[nH]n4)C3)CC2)ncc1C(F)(F)F` [Embodiment 57, 6-((3-(4-(4-methoxy-5-(trifluoromethyl)pyridin-2-yl)piperazine-1-carbonyl)azetidin-1-yl)methyl)-4-(trifluoromethyl)pyridazin-3(2H)-one], on PARP7, the IC50 is less than 10 nM.
`CCOc1cc(C(F)(F)F)cnc1N1CCN(C(=O)[C@H]2C[C@H](NC(C)(C)c3cc(C(F)(F)F)c(=O)[nH]n3)C2)CC1` [Embodiment 58] displayed a half-maximal inhibitory concentration (IC50) on PARP7 of 10 to 100 nM.
As to `COc1cc(C(F)(F)F)cnc1N1CCN(C(=O)[C@H]2C[C@H](NC(C)(C)c3cc(C(F)(F)F)c(=O)[nH]n3)C2)CC1` [Embodiment 59], on PARP7, the IC50 lay within 10 to 100 nM.
Turning to `CC(C)(N[C@H]1C[C@H](C(=O)N2CCN(c3ncc(C(F)(F)F)cc3C(N)=O)CC2)C1)c1cc(C(F)(F)F)c(=O)[nH]n1` [Embodiment 60, 2-(4-((1R,3R)-3-((2-(6-oxo-5-(trifluoromethyl)-1,6-dihydropyridazin-3-yl)propan-2-yl)amino)cyclobutane-1-carbonyl)piperazin-1-yl)-5-(trifluoromethyl)nicotinamide], the IC50 at PARP7 is less than 10 nM; on PARP2 it was 100 to 1000 nM.
For `NC(=O)c1cc(C(F)(F)F)cnc1N1CCN(C(=O)[C@H]2C[C@H](NCc3cc(C(F)(F)F)c(=O)[nH]n3)C2)CC1` [Embodiment 62, 2-(4-((1R,3R)-3-(((6-oxo-5-(trifluoromethyl)-1,6-dihydropyridazin-3-yl)methyl)amino)cyclobutane-1-carbonyl)piperazin-1-yl)-5-(trifluoromethyl)nicotinamide] the same measures were less than 10 nM and 10 to 100 nM.
Turning to `CC(C)(N[C@H]1C[C@H](C(=O)N2CCN(c3ncc(C(F)(F)F)c4cc[nH]c34)CC2)C1)c1cc(C(F)(F)F)c(=O)[nH]n1` [Embodiment 64, 4-(trifluoromethyl)-6-(2-(((1R,3R)-3-(4-(4-(trifluoromethyl)-1H-pyrrolo[2,3-c]pyridin-7-yl)piperazine-1-carbonyl)cyclobutyl)amino)propan-2-yl)pyridazin-3(2H)-one], the results for the 50% inhibitory concentration (IC50) on PARP7 and against PARP2 were less than 10 nM and 100 to 1000 nM, respectively.
As to `Cn1ccc2c(C(F)(F)F)cnc(N3CCN(C(=O)[C@H]4C[C@H](NC(C)(C)c5cc(C(F)(F)F)c(=O)[nH]n5)C4)CC3)c21` [Embodiment 65, 6-(2-(((1R,3R)-3-(4-(1-methyl-4-(trifluoromethyl)-1H-pyrrolo[2,3-c]pyridin-7-yl)piperazine-1-carbonyl)cyclobutyl)amino)propan-2-yl)-4-(trifluoromethyl)pyridazin-3(2H)-one], the 50% inhibitory concentration (IC50) against PARP2 fell in the range of 100 to 1000 nM.
With `CC(C)(N[C@H]1C[C@H](C(=O)N2CCN(c3ncc(C(F)(F)F)cc3C(=O)N3CCCC3)CC2)C1)c1cc(C(F)(F)F)c(=O)[nH]n1` [Embodiment 66], at PARP7, the IC50 was 10 to 100 nM.
On the same count and under the same terms, the result for `Cc1cc2c(C(F)(F)F)cnc(N3CCN(C(=O)[C@H]4C[C@H](NC(C)(C)c5cc(C(F)(F)F)c(=O)[nH]n5)C4)CC3)c2[nH]1` [Embodiment 68, 6-(2-(((1R,3R)-3-(4-(2-methyl-4-(trifluoromethyl)-1H-pyrrolo[2,3-c]pyridin-7-yl)piperazine-1-carbonyl)cyclobutyl)amino)propan-2-yl)-4-(trifluoromethyl)pyridazin-3(2H)-one] reads less than 10 nM.
